Experiments:
CD73 [1] = biological target: T1, CD73 (Homo sapiens, UniProt P21589); assay: CD73 Biochemical IC50 Assay; conditions: CD73 enzyme (R&D system) final 0.3 nM, final AMP 15 uM, 60 mins incubation, Rapid fire
T1 sequence (P21589 27-549): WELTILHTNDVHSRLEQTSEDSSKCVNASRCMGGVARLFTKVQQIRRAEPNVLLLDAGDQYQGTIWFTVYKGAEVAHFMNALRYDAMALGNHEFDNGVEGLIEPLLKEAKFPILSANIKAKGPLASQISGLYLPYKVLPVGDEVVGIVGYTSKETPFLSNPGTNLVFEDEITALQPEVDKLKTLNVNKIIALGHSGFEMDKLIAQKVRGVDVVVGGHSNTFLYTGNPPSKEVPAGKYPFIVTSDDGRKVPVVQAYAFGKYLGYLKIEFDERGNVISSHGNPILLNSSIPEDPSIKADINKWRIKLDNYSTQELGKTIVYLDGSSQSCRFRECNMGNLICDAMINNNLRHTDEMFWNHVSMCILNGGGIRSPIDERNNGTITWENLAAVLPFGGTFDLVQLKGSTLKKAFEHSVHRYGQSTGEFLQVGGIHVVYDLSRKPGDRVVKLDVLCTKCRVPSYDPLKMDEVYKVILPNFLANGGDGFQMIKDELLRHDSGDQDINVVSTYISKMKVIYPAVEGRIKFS
Method: CD73 Biochemical IC50 Assay
Compound serial dilutions were pre-spotted into Thermo Nunc assay plate. 50 μL CD73 enzyme buffer (CD73 purchased from R&D system=0.6 nM, 25 mM Tris, pH 7.4, 5 mM MgCl2, 1 mM NaH2PO4) was added into the assay plate and incubated for 15 mins. […] After incubation for 60 mins, the supernatant 20 uL was transferred into 384-well NUNC plate pre-filled with 60 ul Quench buffer (80% organic and 20% water+0.1% FA) with internal standard. The plate was spun down at 4500 rpm for 20 mins, then 20 μl of supernatant was transferred to another Nunc plate prefilled with 80 μl of water. The samples were run using Rapid fire.

CD73 [2] = biological target: T1, CD73; assay: MDA-MB-231 Cell Based CD73 Activity Assay (DMEM); design: endogenous in cells; host or cells: MDA-MB-231-GFP; conditions: MDA-MB-231-GFP cells, DMEM with 10% human plasma, overnight compound treatment, 200 uM AMP, 100 mins
Method: Cells were plated into assay plate with compounds pre-spotted, for an overnight compound treatment. 50 uL of 400 uM AMP (final concentration will be 200 uM) was added using Bio-tek dispenser. Plates were incubated for 100 mins. 20 uL of supernatant was transferred into 384-well NUNC plate pre-filled with 60 ul Quench buffer (80% organic and 20% water+0.1% FA) with internal standard. The plates were spun down at 4500 rpm for 20 mins, then 20 ul of supernatant was transferred to another Nunc plate prefilled with 80 ul of water. The samples were analyzed using Rapid fire.

| IC50 (CD73 [1]) [nM] | EC50 (CD73 [2]) [nM] | Compound |
| --- | --- | --- |
| 12.7 | 33.7 | CCc1nc(-c2c[nH]c(=O)[nH]c2=O)cc(N2C[C@H](Oc3cc4c(cn3)cnn4CC(F)(F)F)C(F)(F)C2)n1 [Example 1, (S)-6-(3,3-difluoro-4-((1-(2,2,2-trifluoroethyl)-1H-pyrazolo[4,3-c]pyridin-6-yl)oxy)pyrrolidin-1-yl)-2-ethyl-[4,5′-bipyrimidine]-2′,4′ (1′H,3′H)-dione] |
| 25.7 | > 50 | O=c1[nH]cc(-c2cc(N3C[C@H](Oc4cc5c(cn4)cnn5CC(F)(F)F)C(F)(F)C3)nc(C3CC3)n2)c(=O)[nH]1 [Example 3, (S)-2-cyclopropyl-6-(3,3-difluoro-4-((1-(2,2,2-trifluoroethyl)-1H-pyrazolo[4,3-c]pyridin-6-yl)oxy)pyrrolidin-1-yl)-[4,5′-bipyrimidine]-2′,4′ (1′H,3′H)-dione] |
| 7.14 | 35.7 | O=c1[nH]cc(-c2cc(N3C[C@H](Oc4cc5c(cn4)cnn5CC(F)(F)F)C(F)(F)C3)nc(C(F)(F)F)n2)c(=O)[nH]1 [Example 6, (S)-6-(3,3-difluoro-4-((1-(2,2,2-trifluoroethyl)-1H-pyrazolo[4,3-c]pyridin-6-yl)oxy)pyrrolidin-1-yl)-2-(trifluoromethyl)-[4,5′-bipyrimidine]-2′,4′ (1′H,3′H)-dione] |
| 4.28 | 1.07 | Cc1nc(-c2c[nH]c(=O)[nH]c2=O)cc(N2C[C@H](Oc3ccnc(C4(C(F)(F)F)CC4)c3)C(F)(F)C2)n1 [Example 7, (S)-6-(3,3-difluoro-4-((2-(1-(trifluoromethyl)cyclopropyl)pyridin-4-yl)oxy)pyrrolidin-1-yl)-2-methyl-[4,5′-bipyrimidine]-2′,4′ (1′H,3′H)-dione] |
| 41 | 49 | Cc1cc(N2C[C@H](Oc3cc4c(cn3)cnn4CC(F)(F)F)C(F)(F)C2)cc(-c2c[nH]c(=O)[nH]c2=O)n1 [Example 10, (S)-5-(4-(3,3-difluoro-4-((1-(2,2,2-trifluoroethyl)-1H-pyrazolo[4,3-c]pyridin-6-yl)oxy)pyrrolidin-1-yl)-6-methylpyridin-2-yl)pyrimidine-2,4(1H,3H)-dione] |
| 12.8 | 22.5 | O=c1[nH]cc(-c2cc(N3C[C@H](Oc4cc5c(cn4)cnn5CC(F)(F)F)C(F)(F)C3)cc(C(F)(F)F)n2)c(=O)[nH]1 [Example 11, (S)-5-(4-(3,3-difluoro-4-((1-(2,2,2-trifluoroethyl)-1H-pyrazolo[4,3-c]pyridin-6-yl)oxy)pyrrolidin-1-yl)-6-(trifluoromethyl)pyridin-2-yl)pyrimidine-2,4(1H,3H)-dione] |
| 8.95 | 27.1 | COc1cc(N2C[C@H](Oc3cc4c(cn3)cnn4CC(F)(F)F)C(F)(F)C2)cc(-c2c[nH]c(=O)[nH]c2=O)n1 [Example 12, (S)-5-(4-(3,3-difluoro-4-((1-(2,2,2-trifluoroethyl)-1H-pyrazolo[4,3-c]pyridin-6-yl)oxy)pyrrolidin-1-yl)-6-methoxypyridin-2-yl)pyrimidine-2,4(1H,3H)-dione] |
| 31.3 | > 50 | Cc1nc(-c2c[nH]c(=O)[nH]c2=O)cc(N2C[C@H](Oc3cc(C(F)(F)F)ccn3)C(F)(F)C2)n1 [Example 13, 5-[6-[(4S)-3,3-difluoro-4-[[4-(trifluoromethyl)-2-pyridyl]oxy]pyrrolidin-1-yl]-2-methyl-pyrimidin-4-yl]-1H-pyrimidine-2,4-dione] |
| 4.92 | > 50 | Cc1nc(-c2c[nH]c(=O)[nH]c2=O)cc(N2C[C@H](Oc3cc(OC(F)F)ccn3)C(F)(F)C2)n1 [Example 14, (S)-6-(4-((4-(difluoromethoxy)pyridin-2-yl)oxy)-3,3-difluoropyrrolidin-1-yl)-2-methyl-[4,5′-bipyrimidine]-2′,4′ (1′H,3′H)-dione] |
| 10.2 | > 50 | Cc1nc(-c2c[nH]c(=O)[nH]c2=O)cc(N2C[C@H](Oc3cc(C(F)F)c(F)cn3)C(F)(F)C2)n1 [Example 15, (S)-6-(4-((4-(difluoromethyl)-5-fluoropyridin-2-yl)oxy)-3,3-difluoropyrrolidin-1-yl)-2-methyl-[4,5′-bipyrimidine]-2′,4′ (1′H,3′H)-dione] |
| 6.28 | > 50 | Cc1nc(-c2c[nH]c(=O)[nH]c2=O)cc(N2C[C@H](Oc3ccc(F)c(C(F)F)c3)C(F)(F)C2)n1 [Example 16, (S)-6-(4-(3-(difluoromethyl)-4-fluorophenoxy)-3,3-difluoropyrrolidin-1-yl)-2-methyl-[4,5′-bipyrimidine]-2′,4′ (1′ H,3′ H)-dione] |
| 4.21 | > 50 | Cc1nc(-c2c[nH]c(=O)[nH]c2=O)cc(N2C[C@H](Oc3ccc(F)c(OC(F)F)c3)C(F)(F)C2)n1 [Example 17, (S)-6-(4-(3-(difluoromethoxy)-4-fluorophenoxy)-3,3-difluoropyrrolidin-1-yl)-2-methyl-[4,5′-bipyrimidine]-2′,4′ (1′H,3′H)-dione] |
| 5.7 | 32.9 | Cc1nc(-c2c[nH]c(=O)[nH]c2=O)cc(N2C[C@H](Oc3ccnc(C(F)(F)F)c3)C(F)(F)C2)n1 [Example 18, (S)-6-(3,3-difluoro-4-((2-(trifluoromethyl)pyridin-4-yl)oxy)pyrrolidin-1-yl)-2-methyl-[4,5′-bipyrimidine]-2′,4′ (1′ H,3′ H)-dione] |
| 6.26 | 26 | Cc1nc(-c2c[nH]c(=O)[nH]c2=O)cc(N2C[C@H](Oc3ccc4cnn(CC(F)(F)F)c4c3)C(F)(F)C2)n1 [Example 19, (S)-6-(3,3-difluoro-4-((1-(2,2,2-trifluoroethyl)-1H-indazol-6-yl)oxy)pyrrolidin-1-yl)-2-methyl-[4,5′-bipyrimidine]-2′,4′ (1′H,3′H)-dione] |
| 8.7 | > 50 | Cc1nc(-c2c[nH]c(=O)[nH]c2=O)cc(N2C[C@H](Oc3ccncc3)C(F)(F)C2)n1 [Example 20, (S)-6-(3,3-difluoro-4-(pyridin-4-yloxy)pyrrolidin-1-yl)-2-methyl-[4,5′-bipyrimidine]-2′,4′ (1′H,3′H)-dione] |
| 4.97 | 39.7 | Cc1nc(-c2c[nH]c(=O)[nH]c2=O)cc(N2C[C@H](Oc3ccnc(C(F)F)c3)C(F)(F)C2)n1 [Example 21, (S)-6-(4-((2-(difluoromethyl)pyridin-4-yl)oxy)-3,3-difluoropyrrolidin-1-yl)-2-methyl-[4,5′-bipyrimidine]-2′,4′ (1′ H,3′ H)-dione] |
| 14.4 | > 50 | Cc1nc(-c2c[nH]c(=O)[nH]c2=O)cc(N2C[C@H](Oc3cc4c(cnn4CC(F)(F)F)cc3F)C(F)(F)C2)n1 [Example 23, (S)-6-(3,3-difluoro-4-((5-fluoro-1-(2,2,2-trifluoroethyl)-1H-indazol-6-yl)oxy)pyrrolidin-1-yl)-2-methyl-[4,5′-bipyrimidine]-2′,4′ (1′H,3′H)-dione] |
| 7.67 | > 50 | Cc1cc(O[C@H]2CN(c3cc(-c4c[nH]c(=O)[nH]c4=O)nc(C)n3)CC2(F)F)ccn1 [Example 24, (S)-6-(3,3-difluoro-4-((2-methylpyridin-4-yl)oxy)pyrrolidin-1-yl)-2-methyl-[4,5′-bipyrimidine]-2′,4′ (1′H,3′H)-dione] |
| 4 | 5.31 | Cc1nc(-c2c[nH]c(=O)[nH]c2=O)cc(N2C[C@H](Oc3cc(C4(C(F)(F)F)CC4)ccn3)C(F)(F)C2)n1 [Example 25, (S)-6-(3,3-difluoro-4-((4-(1-(trifluoromethyl)cyclopropyl)pyridin-2-yl)oxy)pyrrolidin-1-yl)-2-methyl-[4,5′-bipyrimidine]-2′,4′ (1′H,3′H)-dione] |
| 7.06 | > 50 | Cc1nc(OCC(F)(F)COC(=O)NC(C)C)cc(-c2c[nH]c(=O)[nH]c2=O)n1 [Example 26] |
| 7.16 | 6.38 | Cc1nc(-c2c[nH]c(=O)[nH]c2=O)cc(N2C[C@H](Oc3cc4c(cn3)c(C)nn4CC(F)(F)F)C(F)(F)C2)n1 [Example 28, (S)-6-(3,3-difluoro-4-((3-methyl-1-(2,2,2-trifluoroethyl)-1H-pyrazolo[4,3-c]pyridin-6-yl)oxy)pyrrolidin-1-yl)-2-methyl-[4,5′-bipyrimidine]-2′,4′ (1′H,3′H)-dione] |

Reference: patent US20240116928A1 (Gilead Sciences, Inc., priority 2022, published 2024)
